Experimental data as given in PMC11465516, “Kinetic and Structural Studies of the Plastidial Solanum tuberosum Phosphorylase” (ACS Omega, 2024).
Like-named read-outs stand apart in the source and are kept apart here. Blank lines part the entries; values can stand above or below the compound they belong to.

Assays:
[1] = biological target: T1, stPho1 (plastidial Solanum tuberosum phosphorylase) (Solanum tuberosum, UniProt P04045); assay: stPho1 enzyme kinetics in the direction of glycogen synthesis; assay type: biochemical
T1 construct: stPho1 was purified from a natural source; from tissue; host or cells: Solanum tuberosum mature tubers
T1 sequence (P04045 51-966): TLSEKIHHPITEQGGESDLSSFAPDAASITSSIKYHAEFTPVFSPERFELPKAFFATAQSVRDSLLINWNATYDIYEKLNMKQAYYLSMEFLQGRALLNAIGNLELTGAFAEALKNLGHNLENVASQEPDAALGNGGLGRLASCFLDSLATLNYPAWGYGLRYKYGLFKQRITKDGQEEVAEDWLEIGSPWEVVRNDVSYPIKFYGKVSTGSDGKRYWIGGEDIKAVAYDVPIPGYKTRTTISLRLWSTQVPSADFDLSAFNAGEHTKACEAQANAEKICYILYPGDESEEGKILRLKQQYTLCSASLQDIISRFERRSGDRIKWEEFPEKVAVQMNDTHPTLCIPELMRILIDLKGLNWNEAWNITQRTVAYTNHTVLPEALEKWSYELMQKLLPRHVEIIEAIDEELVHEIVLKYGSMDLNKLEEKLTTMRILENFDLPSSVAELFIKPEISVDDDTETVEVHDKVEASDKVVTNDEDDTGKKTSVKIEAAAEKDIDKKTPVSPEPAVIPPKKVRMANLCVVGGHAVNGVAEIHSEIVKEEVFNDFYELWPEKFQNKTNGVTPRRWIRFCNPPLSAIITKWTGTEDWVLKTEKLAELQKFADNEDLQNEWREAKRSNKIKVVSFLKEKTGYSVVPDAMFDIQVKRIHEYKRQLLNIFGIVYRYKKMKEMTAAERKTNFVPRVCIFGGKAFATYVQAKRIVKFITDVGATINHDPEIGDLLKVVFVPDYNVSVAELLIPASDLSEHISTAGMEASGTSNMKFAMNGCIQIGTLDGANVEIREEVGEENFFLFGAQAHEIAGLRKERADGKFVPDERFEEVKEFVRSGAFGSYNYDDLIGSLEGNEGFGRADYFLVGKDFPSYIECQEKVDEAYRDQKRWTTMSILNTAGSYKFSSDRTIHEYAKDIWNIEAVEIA
Source text: (§1) In vitro, stPho1 can perform the reverse reaction in the presence of higher concentrations of Glc-1-P, where the enzyme adds glucose residues on glucans with direct release of orthophosphate ions, which can then be measured spectrophotometrically using the method of Saheki et al.[47] Starch granules are composed of two distinct glucose polymers, amylose and amylopectin.[48] Amylopectin is the major polymer in starch and has α-1,4-linked glucose chains with α-1,6-linked branches every 24–30 glucose units, whereas amylose is composed of long α-1,4-linked linear chains. Kinetic studies were performed using glycogen, whose structure is very similar to that of amylopectin but with more branches (every 8–12 glucose units) due to better solubility. Enzyme assays were performed at 30 °C in the direction of glycogen synthesis using 30 μg/mL of stPho1 or ΔPho1 in a 20 mM sodium citrate buffer (pH 6.0) containing 60 mM KCl, 0.6 mM ethylenediaminetetraacetic acid (EDTA), and 0.6 mM dithiothreitol, using constant concentrations of glycogen (0.2% w/v) and various concentrations of Glc-1-P (3, 4, 6, 10, and 15 mM for stPho1 and 1, 2, 3, 4, 6 mM for stPho1ΔL78) and inhibitors. Initial velocities were calculated from the pseudo-first-order rate constants (k) using the first-order rate equation ([A] = [A]0e^–kt), where [A]0 and [A] are the initial concentration of the sample and the sample’s concentration at various times, respectively, and t is the corresponding time (min) following a previously established protocol,[54] and the nonlinear regression program GraFit[50] with an explicit value was used for calculating the standard deviation of each point.[49]
(§2) To establish the optimum pH and temperature for enzyme activity, we first measured the enzymatic activity in the 4.5–8.5 pH range. Kinetic studies were performed in the direction of glycogen synthesis using 50 μg/mL of stPho1 using six different buffers (20 mM sodium acetate buffer for pH 4.5 and 5.5, 20 mM sodium citrate buffer for pH 6.0 and 6.5, and 20 mM Tris–HCl for pH 7.5 and 8.5) containing 60 mM KCl, 0.6 mM EDTA, and 0.6 mM dithiothreitol, using constant concentrations of glycogen (0.2% w/v) and Glc-1-P (14 mM) at 30 °C. […] To determine the optimum temperature for the activity, enzymatic assays were performed at temperatures 20, 30, 37, and 45 °C. Kinetic studies were performed in the direction of glycogen synthesis using 50 μg/mL of stPho1 in a 20 mM sodium citrate buffer (pH 6.0) containing 60 mM KCl, 0.6 mM EDTA, and 0.6 mM dithiothreitol, using constant concentrations of glycogen (0.2% w/v) and Glc-1-P (4 mM). […] Since mammalian muscle phosphorylase activity is dependent on the presence of the allosteric activator AMP,[35] we investigated whether the presence of AMP affects the stPho1 enzymatic activity. The effect was tested with 1 mM AMP, using 30 μg/mL of stPho1 in 20 mM sodium citrate buffer (pH 6.0) containing 60 mM KCl, 0.6 mM EDTA, and 0.6 mM dithiothreitol, using a saturating concentration of glycogen (0.2% w/v) and various concentrations of Glc-1-P (3, 6, 10, and 15 mM).

[2] = test system: rabbit muscle glycogen phosphorylase b (rmGPb); conditions: cited from earlier work
stPho1ΔL78 [3] = biological target: T2, stPho1ΔL78 (Solanum tuberosum, UniProt P04045); assay: stPho1ΔL78 enzyme kinetics in the direction of glycogen synthesis; assay type: biochemical
T2 construct: the N-terminal (residues 23–446) and the C-terminal (residues 511–916); from tissue; host or cells: Solanum tuberosum mature tubers; purified stPho1 left about 4 weeks at room temperature to proteolyse
Source text: as §1, §2

rmGPa = biological target: rmGPa; design: method as in PMID 12930991, PMID 3805034, PMID 624732; conditions: cited from earlier work
mammalian enzyme (GP) = biological target: mammalian enzyme (GP); design: method as in PMID 32771768; conditions: cited from earlier work
stPho1ΔL78 [4] = assay: stPho1ΔL78 enzyme kinetics in the direction of glycogen synthesis; assay type: biochemical, Solanum tuberosum; conditions: direction of glycan synthesis
Source text: as §1, §2

[5] = 30 °C, pH 6.0, glycogen 0.2% w/v
[6] = 30 °C, pH 6.0, glycogen 0.2% w/v, read-out: Km Glc-1-P
[7] = 30 °C, pH 6.0, glycogen 0.2% w/v, various Glc-1-P, read-out: Ki

- Effect on stPho1 enzymatic activity (Vmax, Km) ([1]; 1 mM AMP, glycogen 0.2% w/v, Glc-1-P 3-15 mM): does not have any effect
Compound: Nc1ncnc2c1ncn2[C@@H]1O[C@H](COP(=O)(O)O)[C@@H](O)[C@H]1O [AMP]

Compound: O=P(O)(O)O[C@H]1O[C@H](CO)[C@@H](O)[C@H](O)[C@H]1O [Glc-1-P, glucose-1-phosphate]
- Vmax Glc-1-P + 1 mM AMP ([2]; + 1 mM AMP): 64[63] μmol/min/mg
- Vmax Glc-1-P [2]: 2.9[63] μmol/min/mg
- Km ([2]; read-out: Km Glc-1-P + 1 mM AMP, + 1 mM AMP): 9000 µM
- Km ([2]; read-out: Km Glc-1-P): 28000 µM
- Vmax Glc-1-P [1, 5]: 0.37 ± 0.01 µmol/min/mg
- Km [1, 6]: 2300 ± 200 µM
- Vmax Glc-1-P + 1 mM AMP ([1]; + 1 mM AMP, pH 6.0, glycogen 0.2% w/v): 0.39 ± 0.01 µmol/min/mg
- Km ([1]; read-out: Km Glc-1-P + 1 mM AMP, + 1 mM AMP, pH 6.0, glycogen 0.2% w/v): 2400 ± 200 µM
- Vmax Glc-1-P (stPho1ΔL78 [3]; [5]): 0.32 ± 0.02 µmol/min/mg
- Km (stPho1ΔL78 [3]; [6]): 1400 ± 200 µM

Compound: C[C@H]1O[C@H](O[C@H]2[C@H](O)[C@@H](O)[C@@H](O[C@H]3[C@H](O)[C@@H](O)C(O)O[C@@H]3CO)O[C@@H]2CO)[C@H](O)[C@@H](O)[C@@H]1N[C@H]1C=C(CO)[C@@H](O)[C@H](O)[C@H]1O (some centres unmarked) [acarbose]
- Ki (rmGPa): 26 mM

Compound: Cn1c(=O)c2c(ncn2C)n(C)c1=O [caffeine]
- Ki ([2]; in the presence of 1 mM AMP): 0.13 mM

- Effect on the enzymatic activity of stPho1 ([1]; up to a concentration of 1 mM): did not have any effect
Compound: O=c1c(O)c(-c2ccc(O)c(O)c2)oc2cc(O)cc(O)c12 [quercetin]
- Ki (mammalian enzyme (GP)): 0.032 to 0.069 mM

Compound: OC[C@H]1O[C@H](O)[C@H](O)[C@@H](O)[C@@H]1O [α-D-glucose]
- Ki ([2]; in the presence of 1 mM AMP): 3.2 mM
- Ki [1, 7]: 42.8 ± 2.6 mM
- Ki (stPho1ΔL78 [3]; [7]): 38.4 ± 1.5 mM

Compound: OC[C@H]1O[C@@H]2O[C@H]3[C@H](O)[C@@H](O)[C@@H](O[C@H]4[C@H](O)[C@@H](O)[C@@H](O[C@H]5[C@H](O)[C@@H](O)[C@@H](O[C@H]6[C@H](O)[C@@H](O)[C@@H](O[C@H]7[C@H](O)[C@@H](O)[C@@H](O[C@H]1[C@H](O)[C@H]2O)O[C@@H]7CO)O[C@@H]6CO)O[C@@H]5CO)O[C@@H]4CO)O[C@@H]3CO [α-cyclodextrin]
- Ki ([2]; glycogen storage site ligands): 47.1 mM

Compound: OC[C@H]1O[C@@H]2O[C@H]3[C@H](O)[C@@H](O)[C@@H](O[C@H]4[C@H](O)[C@@H](O)[C@@H](O[C@H]5[C@H](O)[C@@H](O)[C@@H](O[C@H]6[C@H](O)[C@@H](O)[C@@H](O[C@H]7[C@H](O)[C@@H](O)[C@@H](O[C@H]8[C@H](O)[C@@H](O)[C@@H](O[C@H]1[C@H](O)[C@H]2O)O[C@@H]8CO)O[C@@H]7CO)O[C@@H]6CO)O[C@@H]5CO)O[C@@H]4CO)O[C@@H]3CO [β-cyclodextrin]
- Ki ([2]; in the presence of 1 mM AMP): 14.1 mM
- Ki [1]: 0.0731 ± 0.0059 mM
- Binding strength in stPho1 relative to rmGPb ([1]; stPho1 forms vs rmGPb): 200–450 times
- Ki (stPho1ΔL78 [3]): 0.031 ± 0.001 mM

Compound: OC[C@H]1O[C@@H]2O[C@H]3[C@H](O)[C@@H](O)[C@@H](O[C@H]4[C@H](O)[C@@H](O)[C@@H](O[C@H]5[C@H](O)[C@@H](O)[C@@H](O[C@H]6[C@H](O)[C@@H](O)[C@@H](O[C@H]7[C@H](O)[C@@H](O)[C@@H](O[C@H]8[C@H](O)[C@@H](O)[C@@H](O[C@H]9[C@H](O)[C@@H](O)[C@@H](O[C@H]1[C@H](O)[C@H]2O)O[C@@H]9CO)O[C@@H]8CO)O[C@@H]7CO)O[C@@H]6CO)O[C@@H]5CO)O[C@@H]4CO)O[C@@H]3CO [γ-cyclodextrin]
- Ki ([2]; glycogen storage site ligands): 7.4 mM

Compound: glycogen
- Km × 1000 glycogen [2]: 12^1[63] %
- Km × 1000 glycogen ([1]; 30 °C, pH 6.0): 114.2 ± 7.6%
- Affinity of stPho1ΔL78 relative to stPho1 (stPho1ΔL78 [4]): 2 times
- Km × 1000 glycogen (stPho1ΔL78 [3]; 30 °C, pH 6.0): 60 ± 9%

Compound: maltoheptaose [maltoheptaose (G7)]
- Ki ([2]; glycogen storage site ligands): 1 mM
